Source: PubChem BioAssay (NCI)
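1) Cells in 96-well plates. 2) Compound, 48 h, 5 concentrations. 3) Linear interpolation between surrounding doses. 4) Unreached endpoint = highest concentration. TGI: total growth inhibition.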

Columns and labels:
Test in all cases: inhibition of tumour cell growth, NCI panel, 48 h
MDA-N = system: MDA-N
OVCAR-5 ovarian = system: OVCAR-5 ovarian
786-0 renal = system: 786-0 renal
IGROV1 ovarian = system: IGROV1 ovarian
MCF7 breast = system: MCF7 breast
TK-10 renal = system: TK-10 renal
M14 melanoma = system: M14 melanoma
SNB-75 CNS = system: SNB-75 CNS
KM12 colon = system: KM12 colon
NCI-H522 lung = system: NCI-H522 lung
UACC-257 melanoma = system: UACC-257 melanoma

| Structure (SMILES) | TGI (MDA-N) [µM] | TGI (OVCAR-5 ovarian) [µM] | TGI (786-0 renal) [µM] | TGI (IGROV1 ovarian) [µM] | TGI (MCF7 breast) [µM] | TGI (TK-10 renal) [µM] | TGI (M14 melanoma) [µM] | TGI (SNB-75 CNS) [µM] | TGI (KM12 colon) [µM] | TGI (NCI-H522 lung) [µM] | TGI (UACC-257 melanoma) [µM] |
| --- | --- | --- | --- | --- | --- | --- | --- | --- | --- | --- | --- |
| CCn1nc(-c2ccccc2)c2c1N(C)c1ccccc1-n1c(-c3ccccc3)nnc1-2 | 28.9 | 33.5 | 30.6 | 40.3 | 19.8 | 31.1 | 32.1 | 15.7 | – | – | – |
| O=c1[nH]c(=S)c2cc3c(=S)[nH]c(=O)n(CCC(c4ccccc4)(c4ccccc4)c4ccccc4)c3nc2n1CCC(c1ccccc1)(c1ccccc1)c1ccccc1 | > 100 | > 100 | > 100 | – | > 100 | > 100 | > 100 | > 100 | > 100 | > 100 | > 100 |
| COc1cc2c(cc1OC)C1=Cc3ccc(OC)c(OC)c3C(C#N)N1CC2 (stereo not drawn) | > 100 | > 100 | > 100 | – | > 100 | > 100 | > 100 | 33.8 | 58.7 | > 100 | 47.4 |
| c1ccc2c(c1)nc1n2CCNC1 | > 100 | > 100 | > 100 | > 100 | > 100 | > 100 | > 100 | > 100 | > 100 | – | > 100 |
| NNC(=Nc1ccccc1)SCc1ccccc1 | > 100 | > 100 | > 100 | > 100 | > 100 | – | > 100 | > 100 | > 100 | > 100 | > 100 |
| N#CC(c1nc2ccccc2s1)c1nc(Cl)ncc1Br (stereo not drawn) | > 100 | > 100 | > 100 | > 100 | – | > 100 | > 100 | 71 | > 100 | 62.1 | > 100 |
| COc1ccc(/C=C2\Sc3nnc(C)n3N=C2c2cc(F)c(Cl)cc2Cl)cc1OC | 17.6 | 31.2 | 9.64 | 31 | 19.5 | 32.8 | 27.5 | – | 33.1 | 38.7 | 32.5 |
| Cc1cccc(/C=N/NC(=S)N2CCCCCC2)n1 | > 45.9 | > 72.2 | 0.775 | 1.55 | – | 4.8 | 0.441 | 0.758 | > 44.7 | 0.788 | 1.91 |
| CC(C)=NNc1cnnc2ccc([N+](=O)[O-])cc12 | > 100 | > 100 | > 100 | > 100 | > 100 | – | > 100 | > 100 | > 100 | 52 | > 100 |
| OCc1c2c(cc3c1CC1(C3)Cc3cc4c(c(CO)c3C1)CCC4)CCC2 | 29.2 | 34.6 | 27.7 | 30.2 | 44.6 | 36.2 | 32.9 | – | 31.2 | 28.5 | 23.8 |
| CN(C)NC1=NS(=O)(=O)c2cc3c(cc2S1)N(N(C)C)C(=O)c1cc2c(cc1N(N(C)C)C3=O)SC(NN(C)C)=NS2(=O)=O | – | > 10 | > 10 | > 10 | > 10 | > 10 | > 10 | > 10 | > 10 | > 10 | > 10 |
| CC1=NC2(CCCCC2)N(Cl)C(=O)C1SC#N (stereo not drawn) | 32.2 | 38.6 | 31.9 | 34.4 | 48.9 | 35.1 | 34.4 | 44.5 | 42.6 | 38.8 | – |
| OC12C3C4CC5C(C4[C@@H]1Br)C2[C@@](O)(c1c(F)c(F)c(F)c(F)c1F)C53 (stereo partly drawn) | > 100 | > 100 | > 100 | > 100 | 43.7 | > 100 | > 100 | – | 34.5 | > 100 | > 100 |
| CC(C)(C)OC(=O)NC1CCCC1C(O)(C1=CCCC1)C1=CCCC1 (stereo not drawn) | > 100 | > 100 | > 100 | > 100 | – | – | > 100 | > 100 | > 100 | – | > 100 |
| CCOC(O)C(F)(F)F (stereo not drawn) | > 100 | – | – | – | > 100 | > 100 | > 100 | > 100 | > 100 | – | > 100 |
| CC(/C=N/N(C)C1=NCCCCN1)=N/N(C)C1=NCCCCN1 | > 100 | > 100 | > 100 | > 100 | > 100 | > 100 | – | > 100 | > 100 | > 100 | > 100 |
